Reference: ChEMBL document CHEMBL1132164, “Nonpeptidic HIV protease inhibitors: 6-alkyl-5,6-dihydropyran-2-ones possessing achiral 3-(4-amino/carboxamide-2-t-butyl,5-methylphenyl thio) moiety: antiviral activities and pharmacokinetic properties” (Bioorg Med Chem Lett, 1999)

Legend:
[1] = test system: Human immunodeficiency virus 1; test: (§1) Tested for antiviral activity against HIV-III B strain infected human lymphocyte derived CEM cells; type: functional, organism-based, CCRF-CEM
HIV protease = test: (§2) Therapeutic index for HIV protease was determined; details: read-out: Therapeutic index
CCRF-CEM [2] = test: Tested for the cytotoxic effect in uninfected human lymphocyte derived CEM cells.; type: functional; details: read-out: TC50 (the source's name)
[3] = biological target: T1, Human immunodeficiency virus type 1 protease (Human immunodeficiency virus 1, UniProt Q72874); test: In vitro binding affinity against HIV protease at pH 6.2.
[4] = Bioavailability was obtained by the comparison of AUC of subcutaneous dosing and AUC of oral dosing in mouse; type: ADME, organism-based; details: in vivo, read-out: Bioavailabiility
[5] = Half life in dog plasma was determined at dose 10 mg/kg; type: ADME, organism-based, Canis lupus familiaris; design: dose 10 mg/kg
[6] = as §2
Mus musculus [7] = organism: Mus musculus; test: Time taken for EC90 was determined when tested in mouse; type: ADME, organism-based; details: in vivo
[8] = Area under the curve for the compound was obtained when tested in mouse; type: ADME, organism-based; details: in vivo
[9] = Half life in mouse plasma was determined at dose 25 mg/kg; type: ADME, organism-based; design: dose 25 mg/kg
CCRF-CEM [10] = test: as §1; type: functional
[11] = Area under the curve for the compound was obtained when tested in dog; type: ADME, organism-based, Canis lupus familiaris; details: in vivo
[12] = Maximum concentration obtained in dog plasma was determined; type: ADME, organism-based, Canis lupus familiaris
Canis familiaris = organism: Canis familiaris; test: Time taken for EC90 was determined when tested in dog; type: ADME, organism-based, Canis lupus familiaris; details: in vivo
[13] = Maximum concentration obtained in mouse plasma was determined; type: ADME, organism-based
[14] = biological target: T1, Human immunodeficiency virus type 1 protease; test: Binding affinity towards HIV protease was determined
[15] = Bioavailability was obtained by the comparison of AUC of intravenous dosing and AUC of oral dosing in dog; type: ADME, organism-based, Canis lupus familiaris; details: in vivo, read-out: Bioavailabiility
[16] = biological target: Human immunodeficiency virus type 1 protease (Human immunodeficiency virus 1) (UniProt Q72874); test: In vitro binding affinity to HIV protease was determined
[17] = Half life in mouse plasma at dose 25 mg/kg; type: ADME, organism-based; design: dose 25 mg/kg
[18] = Bioavailability was obtained by the comparison of AUC of subcutaneous dosing and AUC of oral dosing in mouse at dose 25 mg/kg; type: ADME, organism-based; details: in vivo, read-out: Bioavailabiility
Mus musculus [19] = test: Time taken for EC90 was determined when tested in mouse at dose 25 mg/kg; type: ADME, organism-based; design: dose 25 mg/kg; details: in vivo
[20] = Maximum concentration obtained in mouse plasma was determined at dose 25 mg/kg; type: ADME, organism-based; design: dose 25 mg/kg
[21] = Area under the curve for the compound is obtained at dose 25 mg/kg; type: ADME, organism-based; design: dose 25 mg/kg; details: mouse, in vivo
[22] = biological target: T1, Human immunodeficiency virus type 1 protease; test: In vitro binding affinity to HIV protease was determined at pH 4.7
[23] = Therapeutic index was determined; details: read-out: TI
[24] = biological target: T1, Human immunodeficiency virus type 1 protease; test: In vitro binding affinity against HIV protease at pH 6.2 was determined
[25] = Human immunodeficiency virus 1, CCRF-CEM

Row | Structure (SMILES) | EC50 [1, 25] [µM] | selectivity ratio (HIV protease) | CC50 (CCRF-CEM [2]) [µM] | IC50 [3] [µM] | further results
1 | Cc1cc(SC2=C(O)OC(CCc3ccc(O)cc3)(C(C)C)CC2=O)c(C(C)(C)C)cc1NC(=O)CC(C)(C)C (stereo not given) | 16 | 4 | 67 | 0.06 | 
2 | CCCCCC1(CCc2ccc(O)cc2)CC(=O)C(Sc2cc(C)c(N)cc2C(C)(C)C)=C(O)O1 (stereo not given) | > 24 | < 1 | 24 | 0.0077 | 
3 | Cc1cc(SC2=C(O)OC(CCc3ccc(O)cc3)(C(C)C)CC2=O)c(C(C)(C)C)cc1NC(=O)c1ccccc1 (stereo not given) | 5.4 | 12 | 66 | 0.0132 | 
4 | Cc1cc(SC2=C(O)OC(CCc3ccc(O)cc3)(C3CC3)CC2=O)c(C(C)(C)C)cc1N (stereo not given) | 2.5 | 20 | 49 | 0.0041 | 
5 | CC(=O)Nc1cc(C(C)(C)C)c(SC2=C(O)OC(CCc3ccccc3)(C(C)C)CC2=O)cc1C (stereo not given) | 1.8 | 46 | 83 | 0.0035 | 
6 | Cc1cc(SC2=C(O)O[C@](CCc3ccc(O)cc3)(C(C)C)CC2=O)c(C(C)(C)C)cc1N (stereo in doubt; 15S) |  |  | 211 |  | bioavailability [4]: 100%; half-life [5]: 1.7 h; EC50 ([1]; ccrf-cem): 0.5 µM; Therapeutic index [6]: 422; Hours above EC90 (Mus musculus [7]): 4; AUC [8]: 30 µM·h; half-life [9]: 1.2 h; EC90 (CCRF-CEM [10]): 1 µM; AUC [11]: 138 µM·h; Cmax [12]: 71 µM; Hours above EC90 (Canis familiaris): 8.5; Cmax [13]: 21.7 µM; Ki [14]: 0.07 nM; bioavailability [15]: 56%
7 | CCCC1(CCc2ccc(O)cc2)CC(=O)C(Sc2cc(C)c(N)cc2C(C)(C)C)=C(O)O1 (stereo not given) | 4.1 | 15 | 62 | 0.0038 | 
8 | Cc1cc(SC2=C(O)OC(C)(CCc3ccc(O)cc3)CC2=O)c(C(C)(C)C)cc1N (stereo not given) | 9.4 | 7 | 66 | 0.0096 | 
9 | Cc1cc(SC2=C(O)OC(CCc3ccc(O)cc3)(C(C)C)CC2=O)c(C(C)(C)C)cc1NC(=O)OC(C)(C)C (stereo not given) |  |  |  | 0.091 | 
10 | Cc1cc(SC2=C(O)OC(CCc3ccc(O)cc3)(C(C)C)CC2=O)c(C(C)(C)C)cc1NC(=O)c1cccnc1 (stereo not given) | 4.9 | > 20 | > 100 | 0.0051 | 
11 | Cc1cc(SC2=C(O)OC(CCc3ccccc3)(c3ccccc3)CC2=O)c(C(C)(C)C)cc1N (stereo not given) | > 64 | < 1 | 64 | 0.011 | 
12 | Cc1cc(SC2=C(O)OC(C)(CCc3ccc(O)cc3)CC2=O)c(C(C)(C)C)cc1O (stereo not given) | > 7 | < 1 | 7 |  | 
13 | Cc1cc(SC2=C(O)OC(CCc3ccc(O)cc3)(C(C)C)CC2=O)c(C(C)(C)C)cc1NC(=O)c1ccc(C#N)cc1 (stereo not given) | 4.1 | 16 | 66 | 0.005 | 
14 | CC(=O)Nc1cc(C(C)(C)C)c(SC2=C(O)OC(CCc3ccc(O)cc3)(C(C)C)CC2=O)cc1C (stereo not given) | 4.8 | > 21 | > 100 | 0.0034 | 
15 | Cc1cc(SC2=C(O)OC(CCc3ccc(O)cc3)(CC(C)C)CC2=O)c(C(C)(C)C)cc1N (stereo not given) | 8.1 | 8 | 62 | 0.0135 | 
16 | Cc1cc(SC2=C(O)OC(CCc3ccc(O)cc3)(C(C)C)CC2=O)c(C(C)(C)C)cc1N (stereo not given) | 1 | 92 | 92 | 0.0027 | EC90 [16]: 3.5 µM; half-life [17]: 2.1 h; bioavailability [18]: 59.2%; Hours above EC90 (Mus musculus [19]): 3.2; Cmax [20]: 21 µM; AUC [21]: 44.8 µM·h; Ki [14]: 0.67 nM

Row | Structure (SMILES) | EC50 [1, 25] [µM] | selectivity ratio (HIV protease) | CC50 (CCRF-CEM [2]) [µM] | IC50 [3] [µM] | further results
17 | Cc1ccc(C(C)(C)C)c(SC2=C(O)O[C@](CCc3ccccc3)(c3ccccc3)CC2=O)c1 |  |  |  |  | IC50 [22]: 0.01 µM
18 | Cc1cc(SC2=C(O)O[C@](CCc3ccc(O)cc3)(C(C)C)CC2=O)c(C(C)(C)C)cc1CO | 0.46 |  |  |  | selectivity ratio [23]: > 200; Ki [24]: 0.09 nM
19 | Cc1cc(SC2=C(O)OC(CCc3ccc(O)cc3)(C3CCCCC3)CC2=O)c(C(C)(C)C)cc1N (stereo not given) | 10 | 7 | 66 | 0.02 | 
20 | Cc1cc(SC2=C(O)OC(CCc3ccc(O)cc3)(C(C)C)CC2=O)c(C(C)(C)C)cc1NC(=O)c1ccccn1 (stereo not given) | 1.5 | 44 | 66 | 0.0061 | 
21 | Cc1cc(SC2=C(O)OC(CCc3ccc(O)cc3)(C(C)C)CC2=O)c(C(C)(C)C)cc1NC(=O)c1ccc(C(F)(F)F)cc1 (stereo not given) | 5 | 5 | 27 | 0.0121 | 
22 | Cc1cc(SC2=C(O)OC(CCc3ccc(N)cc3)(C(C)C)CC2=O)c(C(C)(C)C)cc1N (stereo not given) | 0.9 | 33 | 30 | 0.0075 | 
23 | CCCCC1(CCc2ccc(O)cc2)CC(=O)C(Sc2cc(C)c(N)cc2C(C)(C)C)=C(O)O1 (stereo not given) | 3.7 | 7 | 25 | 0.0044 | 
24 | Cc1cc(SC2=C(O)OC(CCc3ccc(O)cc3)(C3CCCC3)CC2=O)c(C(C)(C)C)cc1N (stereo not given) | 3.8 | 22 | 82 | 0.006 | 
25 | Cc1cc(SC2=C(O)OC(CCc3ccccc3)(C(C)C)CC2=O)c(C(C)(C)C)cc1NC(=O)c1ccc(C#N)cc1 (stereo not given) | 8.3 | 6 | 46 | 0.014 | 
26 | Cc1cc(SC2=C(O)OC(CCc3ccc(O)cc3)(C(C)C)CC2=O)c(C(C)(C)C)cc1NC(=O)c1ccncc1 (stereo not given) | 5.1 | > 20 | > 100 | 0.00508 | 
27 | Cc1cc(SC2=C(O)OC(CCc3ccc(O)cc3)(C(C)C)CC2=O)c(C(C)(C)C)cc1N(C)C (stereo not given) | 1.9 | 36 | 68 | 0.011 | 
28 | Cc1cc(SC2=C(O)OC(CCc3ccccc3)(C(C)C)CC2=O)c(C(C)(C)C)cc1N (stereo not given) | 1.9 | 36 | 69 | 0.0033 | 
29 | Cc1cc(SC2=C(O)O[C@](CCc3ccc(N)cc3)(C(C)C)CC2=O)c(C(C)(C)C)cc1CO |  |  |  |  | selectivity ratio [23]: 1050
30 | Cc1cc(SC2=C(O)O[C@](CCc3ccc(O)cc3)(C(C)C)CC2=O)c(C(C)(C)C)cc1N (stereo in doubt; 15R) |  |  |  |  | EC50 ([1]; ccrf-cem): 91 µM; Therapeutic index [6]: 2; Ki [14]: 13 nM
31 | Cc1cc(SC2=C(O)OC(CCc3ccc(O)cc3)(C(C)C)CC2=O)c(C(C)(C)C)cc1NC(=O)c1cccc(C#N)c1 (stereo not given) | 14 | 5 | 66 | 0.015 | 
